This is an account of results in PubChem BioAssay (NCI).

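These data come from cells grown in 96-well plates and exposed to compound for 48 hours at five concentrations. GI50 is the concentration that inhibits growth by half. TGI denotes the concentration required for complete inhibition of growth.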

Some test systems named below: HOP-92 NSCLC; CCRF-CEM leukemia; M14 melanoma; HL-60(TB) leukemia; SNB-19 CNS; HT29 colon; LOX IMVI melanoma; SNB-75 CNS; KM12 colon; NCI-H460 lung.
Holding throughout (assay): NCI-60 cell line screen, 48 h

As to `COC1(OC)C=CC(=O)C=C1`, the TGI in the experiment on HOP-92 NSCLC worked out at 11 µM; in the experiment with CCRF-CEM leukemia, 22.4 µM; in the experiment with M14 melanoma, 11.5 µM; with HL-60(TB) leukemia, 15.6 µM; in the experiment with SNB-19 CNS it was 30.2 µM; with HT29 colon it was 12.1 µM. Moreover, the TGI in the experiment with LOX IMVI melanoma amounted to 2.91 µM; in the experiment with SNB-75 CNS, 26.9 µM; in the experiment with KM12 colon it was 25.8 µM; in the experiment on NCI-H460 lung it was 19.7 µM.
Regarding `NC1c2c(Cl)sc(Cl)c2C(=O)C1O` (stereo not given), the TGI in the experiment with HOP-92 NSCLC was 84.3 µM; in the experiment on CCRF-CEM leukemia it was 37.7 µM; in the experiment with M14 melanoma, over 100 µM; with HL-60(TB) leukemia, 30.1 µM; in the experiment with SNB-19 CNS, over 100 µM; in the experiment with HT29 colon, 33.9 µM. In addition, the TGI in the experiment on LOX IMVI melanoma is 47.3 µM; in the experiment on SNB-75 CNS, over 100 µM; with KM12 colon, over 100 µM; in the experiment with NCI-H460 lung, over 100 µM.
As for `COc1ccc(NC(=O)CC(=O)N2N=C(N(c3ccccc3)c3ccccc3)CC2c2ccccc2)cc1` (stereo not given), the TGI in the experiment on HOP-92 NSCLC, in the experiment with CCRF-CEM leukemia, with M14 melanoma, with HL-60(TB) leukemia, in the experiment on SNB-19 CNS and in the experiment with HT29 colon was over 100 µM throughout. Also, the TGI in the experiment on LOX IMVI melanoma, with SNB-75 CNS and in the experiment on KM12 colon was over 100 µM throughout.
Regarding `COc1cc2c(cc1O)CCN(C)[C@H]2Cc1ccc(Oc2c(O)c(OC)cc3c2C[C@H]2c4c(c(OC)c(OC)c(OC)c4-3)CCN2C)cc1`, the TGI with HOP-92 NSCLC turned out to be 7.17 µM; in the experiment on CCRF-CEM leukemia, 9.28 µM; in the experiment on M14 melanoma it was 10.9 µM; in the experiment with HL-60(TB) leukemia it was 10.6 µM; in the experiment on SNB-19 CNS it was 12.5 µM; in the experiment with HT29 colon it was 7.35 µM. Besides, the TGI with LOX IMVI melanoma was 6.55 µM; in the experiment on SNB-75 CNS it was 9.61 µM; in the experiment with KM12 colon it was 8.89 µM; in the experiment with NCI-H460 lung, 7.65 µM.
Consider `CC1=NN2C(=N)/C(=C/c3ccccc3)C(=O)N=C2S1`, for which the TGI in the experiment with HOP-92 NSCLC, in the experiment with CCRF-CEM leukemia, with M14 melanoma, in the experiment with HL-60(TB) leukemia, with SNB-19 CNS and in the experiment with HT29 colon was over 100 µM each time. In addition, the TGI with LOX IMVI melanoma, in the experiment with SNB-75 CNS, with KM12 colon and in the experiment with NCI-H460 lung was over 100 µM in each case.
As to `CS(=O)(=O)[O-].CS(=O)(=O)[O-].NC1CCCCC1N.[Pt+4]` (stereo not given), the GI50 with HOP-92 NSCLC is over 100 µM; with CCRF-CEM leukemia it was 40.2 µM; in the experiment on HL-60(TB) leukemia, 33.5 µM; in the experiment on SNB-19 CNS it was over 100 µM; in the experiment with HT29 colon, 62.3 µM; in the experiment with LOX IMVI melanoma, over 61 µM. Further, the figures for the GI50 with SNB-75 CNS, in the experiment with KM12 colon and in the experiment with NCI-H460 lung were over 68 µM, over 100 µM and 47.2 µM, respectively. Also, the TGI in the experiment on HOP-92 NSCLC is over 100 µM; with CCRF-CEM leukemia it was over 100 µM; in the experiment on HL-60(TB) leukemia, over 93.5 µM; in the experiment with SNB-19 CNS, over 100 µM; in the experiment on HT29 colon, over 100 µM; with LOX IMVI melanoma, over 100 µM. Also, the TGI with SNB-75 CNS, with KM12 colon and with NCI-H460 lung was over 100 µM in each case.
With `CC1CN=C(c2ccc(CN3CCC(C4CCN(Cc5ccc(C6=NCC(C)N6)cc5)CC4)CC3)cc2)N1` (stereo not given), the TGI in the experiment with HOP-92 NSCLC was over 100 µM; in the experiment with CCRF-CEM leukemia, 38.2 µM; with M14 melanoma, 44 µM; in the experiment on HL-60(TB) leukemia, over 100 µM; in the experiment on SNB-19 CNS, 75.8 µM; in the experiment on HT29 colon it was 42.7 µM. Also, the TGI was 56 µM in the experiment on LOX IMVI melanoma, 31.1 µM with SNB-75 CNS, 31.8 µM with KM12 colon and 37.3 µM in the experiment on NCI-H460 lung.
As to `O=C(NCCCCCCO)c1cccc2cc3ccccc3nc12`, the TGI was over 100 µM in the experiment with HOP-92 NSCLC; over 100 µM in the experiment with CCRF-CEM leukemia; 74.8 µM in the experiment on HL-60(TB) leukemia; 32.1 µM in the experiment on SNB-19 CNS; 36.6 µM in the experiment on HT29 colon; 34.7 µM in the experiment on LOX IMVI melanoma. Besides, the TGI in the experiment with SNB-75 CNS was found to be 37.3 µM; in the experiment on KM12 colon, 33.9 µM; with NCI-H460 lung, 39 µM.
On to `C=C(C)[C@@H]1CC[C@]2(CO)CC[C@]3(C)[C@H](CC[C@@H]4[C@@](C)(CCCN)[C@H](C(=C)C)CC[C@]43C)[C@@H]12`, for which the GI50 with HOP-92 NSCLC is 1.38 µM; with CCRF-CEM leukemia, 1.84 µM; in the experiment with HL-60(TB) leukemia, 1.78 µM; in the experiment on HT29 colon, 1.58 µM; with SNB-75 CNS, 1.48 µM; in the experiment on KM12 colon it was 1.58 µM. Also, the GI50 with NCI-H460 lung was 1.65 µM. For the same compound, the TGI with HOP-92 NSCLC was 2.82 µM; in the experiment with CCRF-CEM leukemia it was 4.76 µM; in the experiment with HL-60(TB) leukemia it was 3.61 µM; in the experiment with HT29 colon it was 3.77 µM; with SNB-75 CNS, 2.82 µM; with KM12 colon, 3.06 µM. In the experiment with NCI-H460 lung, this compound yielded a TGI of 3.24 µM.
As to `CC1CN=C(c2ccc(-c3nc(-c4ccc(C5=NCC(C)N5)cc4)nc(N(C)C)n3)cc2)N1` (stereo not given), the TGI in the experiment on HOP-92 NSCLC turned out to be 11.3 µM; in the experiment with CCRF-CEM leukemia it was 3.59 µM; in the experiment on M14 melanoma it was 8.68 µM; in the experiment on HL-60(TB) leukemia it was 6.88 µM; in the experiment on SNB-19 CNS it was 6.73 µM; in the experiment with HT29 colon it was 7.33 µM. The TGI stood at 2.93 µM in the experiment on LOX IMVI melanoma, 4.29 µM in the experiment with SNB-75 CNS, 8.96 µM in the experiment with KM12 colon and 11.1 µM in the experiment on NCI-H460 lung.
As to `COc1ccccc1NC(=S)N/N=C/c1ccccn1`, the TGI in the experiment with HOP-92 NSCLC is 29 µM; in the experiment on CCRF-CEM leukemia it was over 23.1 µM; in the experiment with M14 melanoma it was 7.69 µM; with HL-60(TB) leukemia it was 0.693 µM; in the experiment on SNB-19 CNS it was over 46.4 µM; with HT29 colon it was over 31.6 µM. Further, the TGI in the experiment on LOX IMVI melanoma was 6.8 µM; in the experiment on SNB-75 CNS, 24.4 µM; with KM12 colon it was over 31.6 µM; with NCI-H460 lung, 6.12 µM.
With `COc1cc2oc(-c3ccc4c(c3)OCO4)c(OC)c(=O)c2c(O)c1OC`, the TGI with HOP-92 NSCLC, in the experiment with CCRF-CEM leukemia, in the experiment with M14 melanoma, in the experiment on HL-60(TB) leukemia, in the experiment on SNB-19 CNS and with HT29 colon was over 50 µM in each case. For the same compound, the TGI with LOX IMVI melanoma, in the experiment on SNB-75 CNS, in the experiment on KM12 colon and in the experiment with NCI-H460 lung was over 50 µM in each case.
